Test results from the supplement of paper PMC9663587.

How the values were obtained:
[1] = compound: C=CC(=O)Nc1ccc(C(=O)Nc2[nH]nc3c2CN(C(=O)N[C@H](CN(C)C)c2ccccc2)C3(C)C)cc1 [YKL-5-124]; assay: increase in dead-cell fraction, 72 h; higher = more death;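 also: breast cancer cell lines in 384-well plates, stained with Hoechst plus LIVE/DEAD far red dye and imaged, cells above an LDR intensity threshold counted dead, Hoechst-negative corpses included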
[2] = compound: CC(=O)c1c(C)c2cnc(Nc3ccc(N4CCN(CCOCCOCCOCCNC(=O)COc5cccc6c5C(=O)N(C5CCC(=O)NC5=O)C6=O)CC4)cn3)nc2n(C2CCCC2)c1=O [BSJ-03-123]; assay: as above
[3] = compound: CC(=O)c1c(C)c2cnc(Nc3ccc(N4CCNCC4)cn3)nc2n(C2CCCC2)c1=O; assay: as above
[4] = compound: CCN1CCN(Cc2ccc(Nc3ncc(F)c(-c4cc(F)c5nc(C)n(C(C)C)c5c4)n3)nc2)CC1; assay: as above
[5] = compound: T1, CCOc1cc2ncc(C#N)c(Nc3ccc(OCc4ccccn4)c(Cl)c3)c2cc1NC(=O)/C=C/CN(C)C [Neratinib/HKI272]; assay: as above
[6] = compound: CCc1cnn2c(NCc3ccc[n+]([O-])c3)cc(N3CCCC[C@H]3CCO)nc12; assay: as above
[7] = compound: CN(C)C(=O)c1cc2cnc(Nc3ccc(N4CCNCC4)cn3)nc2n1C1CCCC1 [LEE011/Ribociclib]; assay: as above
[8] = compound: CN(C)C/C=C/C(=O)Nc1ccc(C(=O)N2CCC[C@@H](Nc3ncc(Cl)c(-c4c[nH]c5ccccc45)n3)C2)cc1 [THZ531]; assay: as above
[9] = compound: CN(C)C/C=C/C(=O)Nc1ccc(C(=O)Nc2cccc(Nc3ncc(Cl)c(-c4c[nH]c5ccccc45)n3)c2)cc1 [THZ1]; assay: as above
[10] = compound: T2, CN1CC[C@H](c2c(O)cc(O)c3c(=O)cc(-c4ccccc4Cl)oc23)[C@H](O)C1 [Flavopiridol]; assay: as above
[11] = compound: T1, Neratinib/HKI272; assay: GR value, 72 h; higher = faster growth (1 = untreated, <0 = killing);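 also: breast cancer and non-malignant breast epithelial lines, nine half-log doses, viable cells counted by Hoechst and LIVE/DEAD dye imaging versus time-zero plates and DMSO controls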
[12] = compound: T2, Flavopiridol; assay: as above

## HCC1954
[1]; 0.001 µM
  increase in dead-cell fraction: 0.076
[1]; 0.003162 µM
  increase in dead-cell fraction: 0.0781
[1]; 0.01 µM
  increase in dead-cell fraction: 0.11
[1]; 0.03162 µM
  increase in dead-cell fraction: 0.0779
[1]; 0.1 µM
  increase in dead-cell fraction: 0.129
[1]; 0.3162 µM
  increase in dead-cell fraction: 0.104
[1]; 1 µM
  increase in dead-cell fraction: 0.102
[1]; 3.162 µM
  increase in dead-cell fraction: 0.0854
[1]; 10 µM
  increase in dead-cell fraction: 0.15
[2]; 0.001 µM
  increase in dead-cell fraction: 0.0014
[2]; 0.003162 µM
  increase in dead-cell fraction: 0.0109
[2]; 0.01 µM
  increase in dead-cell fraction: 0.0001
[2]; 0.03162 µM
  increase in dead-cell fraction: 0.004
[2]; 0.1 µM
  increase in dead-cell fraction: 0.0138
[2]; 0.3162 µM
  increase in dead-cell fraction: 0.0101
[2]; 1 µM
  increase in dead-cell fraction: 0.0096
[2]; 3.162 µM
  increase in dead-cell fraction: 0.0252
[2]; 10 µM
  increase in dead-cell fraction: 0.141
[3]; 0.0003162 µM
  increase in dead-cell fraction: -0.0089
[3]; 0.001 µM
  increase in dead-cell fraction: -0.001
[3]; 0.003162 µM
  increase in dead-cell fraction: -0.0131
[3]; 0.01 µM
  increase in dead-cell fraction: -0.0027
[3]; 0.03162 µM
  increase in dead-cell fraction: -0.0121
[3]; 0.1 µM
  increase in dead-cell fraction: -0.0026
[3]; 0.3162 µM
  increase in dead-cell fraction: -0.0021
[3]; 1 µM
  increase in dead-cell fraction: -0.0019
[3]; 3.162 µM
  increase in dead-cell fraction: 0.0043
[4]; 0.001 µM
  increase in dead-cell fraction: -0.0023
[4]; 0.003162 µM
  increase in dead-cell fraction: -0.0166
[4]; 0.01 µM
  increase in dead-cell fraction: -0.0193
[4]; 0.03162 µM
  increase in dead-cell fraction: -0.0017
[4]; 0.1 µM
  increase in dead-cell fraction: -0.0058
[4]; 0.3162 µM
  increase in dead-cell fraction: -0.0054
[4]; 1 µM
  increase in dead-cell fraction: 0.0303
[4]; 3.162 µM
  increase in dead-cell fraction: 0.11
[4]; 10 µM
  increase in dead-cell fraction: 0.683
[5]; 0.0003162 µM
  increase in dead-cell fraction: 0.0018
[5]; 0.001 µM
  increase in dead-cell fraction: 0.0012
[5]; 0.003162 µM
  increase in dead-cell fraction: 0.0264
[5]; 0.01 µM
  increase in dead-cell fraction: 0.0121
[5]; 0.03162 µM
  increase in dead-cell fraction: 0.0581
[5]; 0.1 µM
  increase in dead-cell fraction: 0.111
[5]; 0.3162 µM
  increase in dead-cell fraction: 0.17
[5]; 1 µM
  increase in dead-cell fraction: 0.264
[5]; 3.162 µM
  increase in dead-cell fraction: 0.42
[6]; 0.0001 µM
  increase in dead-cell fraction: -0.0062
[6]; 0.0003162 µM
  increase in dead-cell fraction: -0.012
[6]; 0.001 µM
  increase in dead-cell fraction: -0.0086
[6]; 0.003162 µM
  increase in dead-cell fraction: -0.0038
[6]; 0.01 µM
  increase in dead-cell fraction: 0.0856
[6]; 0.03162 µM
  increase in dead-cell fraction: 0.615
[6]; 0.1 µM
  increase in dead-cell fraction: 0.704
[6]; 0.3162 µM
  increase in dead-cell fraction: 0.691
[6]; 1 µM
  increase in dead-cell fraction: 0.7
[7]; 0.001 µM
  increase in dead-cell fraction: 0.0048
[7]; 0.003162 µM
  increase in dead-cell fraction: 0.0062
[7]; 0.01 µM
  increase in dead-cell fraction: -0.0065
[7]; 0.03162 µM
  increase in dead-cell fraction: 0.0067
[7]; 0.1 µM
  increase in dead-cell fraction: 0.006
[7]; 0.3162 µM
  increase in dead-cell fraction: 0.0179
[7]; 1 µM
  increase in dead-cell fraction: 0.0102
[7]; 3.162 µM
  increase in dead-cell fraction: 0.0144
[7]; 10 µM
  increase in dead-cell fraction: 0.0111
[8]; 0.0001 µM
  increase in dead-cell fraction: 0.0002
[8]; 0.0003162 µM
  increase in dead-cell fraction: 0.0055
[8]; 0.001 µM
  increase in dead-cell fraction: 0.0013
[8]; 0.003162 µM
  increase in dead-cell fraction: 0.0058
[8]; 0.01 µM
  increase in dead-cell fraction: 0.0048
[8]; 0.03162 µM
  increase in dead-cell fraction: 0.004
[8]; 0.1 µM
  increase in dead-cell fraction: 0.0127
[8]; 0.3162 µM
  increase in dead-cell fraction: 0.0525
[8]; 1 µM
  increase in dead-cell fraction: 0.42
[9]; 0.0001 µM
  increase in dead-cell fraction: -0.0011
[9]; 0.0003162 µM
  increase in dead-cell fraction: 0.0018
[9]; 0.001 µM
  increase in dead-cell fraction: 0.0068
[9]; 0.003162 µM
  increase in dead-cell fraction: -0.0006
[9]; 0.01 µM
  increase in dead-cell fraction: -0.0054
[9]; 0.03162 µM
  increase in dead-cell fraction: 0.0087
[9]; 0.1 µM
  increase in dead-cell fraction: 0.0688
[9]; 0.3162 µM
  increase in dead-cell fraction: 0.153
[9]; 1 µM
  increase in dead-cell fraction: 0.596
[10]; 0.0001 µM
  increase in dead-cell fraction: 0.0057
[10]; 0.0003162 µM
  increase in dead-cell fraction: 0.0003
[10]; 0.001 µM
  increase in dead-cell fraction: 0.0047
[10]; 0.003162 µM
  increase in dead-cell fraction: 0.0096
[10]; 0.01 µM
  increase in dead-cell fraction: 0.0025
[10]; 0.03162 µM
  increase in dead-cell fraction: 0.0079
[10]; 0.1 µM
  increase in dead-cell fraction: 0.03
[10]; 0.3162 µM
  increase in dead-cell fraction: 0.143
[10]; 1 µM
  increase in dead-cell fraction: 0.733
[11]; 0.0003162 µM
  GR value: 1.04 GR
[11]; 0.001 µM
  GR value: 1.05 GR
[11]; 0.003162 µM
  GR value: 0.938 GR
[11]; 0.01 µM
  GR value: 0.859 GR
[11]; 0.03162 µM
  GR value: 0.533 GR
[11]; 0.1 µM
  GR value: 0.389 GR
[11]; 0.3162 µM
  GR value: 0.27 GR
[11]; 1 µM
  GR value: 0.119 GR
[11]; 3.162 µM
  GR value: -0.0858 GR
[12]; 0.0001 µM
  GR value: 1.01 GR
[12]; 0.0003162 µM
  GR value: 0.967 GR
[12]; 0.001 µM
  GR value: 0.962 GR
[12]; 0.003162 µM
  GR value: 0.996 GR
[12]; 0.01 µM
  GR value: 0.907 GR
[12]; 0.03162 µM
  GR value: 0.928 GR
[12]; 0.1 µM
  GR value: 0.613 GR
[12]; 0.3162 µM
  GR value: 0.0144 GR
[12]; 1 µM
  GR value: -0.52 GR
